In patent US10765651B2, “Co-crystals of substituted glycine and uses thereof” (SyneuRx International (Taiwan) Corp., priority 2017, dated 2020):
Converted amounts (≈) assume the structure as drawn.

How the values were obtained:
[1] = Hygroscopicity test, condition 2 (humidity chamber, weight change); assay type: physicochemical
[2] = Hygroscopicity test, condition 3 (dynamic vapor sorption, 0 to 90 to 0% RH); assay type: physicochemical; conditions: DVS, 25° C.
Procedure: Measurement were taken from 0 to 90 to 0% RH at 25° C. with 10% RH per step with equilibration set to dm/dt+0.01%/min for 10 min or 180 min/step.

[3] = physchem; conditions: water, thermodynamic from solid

Compound: CNCC(=O)O [N-MG, N-methylglycine, reference compound]
- Weight ([1]; 30° C., 75% RH, 0 hr): 0.1375 g
- Outward (appearance) ([1]; 30° C., 75% RH, 1 hr): 90%
- Weight ([1]; 30° C., 75% RH, 1 hr): 0.1585 g
- Weight change (%), water absorbed ([1]; 30° C., 75% RH, 1 hr): (+15.3%)
- Weight ([1]; 30° C., 75% RH, 2 hr): 0.1942 g
- Weight change (%), water absorbed ([1]; 30° C., 75% RH, 2 hr): (+41.2%)
- Outward (appearance) ([1]; 30° C., 75% RH, 3 hr): Liquid
- Weight ([1]; 30° C., 75% RH, 3 hr): 0.2146 g
- Weight change (%), water absorbed ([1]; 30° C., 75% RH, 3 hr): (+56.1%)
- Weight ([1]; 30° C., 75% RH, 5 hr): 0.2403 g
- Weight change (%), water absorbed ([1]; 30° C., 75% RH, 5 hr): (+74.8%)
- Weight ([1]; 30° C., 75% RH, 24 hr): 0.2884 g
- Weight change (%), water absorbed ([1]; 30° C., 75% RH, 24 hr): (+109.7%)
- Weight ([1]; 30° C., 75% RH, 48 hr): 0.2885 g
- Weight change (%), water absorbed ([1]; 30° C., 75% RH, 48 hr): (+109.8%)
- Weight ([1]; 30° C., 75% RH, 72 hr): 0.2885 g
- Weight change (%), water absorbed ([1]; 30° C., 75% RH, 72 hr): (+109.8%)
- Outward (appearance) ([1]; dry before): White
- Weight ([1]; dry before): 0.1375 g
- Weight change (%) ([1]; dry before (change on drying to 0 hr weight)): (−0%)
- Change In Mass (%) ([2]; RH 0%): 0.0%
- Change In Mass (%) ([2]; RH 10%): 0.0%
- Change In Mass (%) ([2]; RH 20%): 0.0%
- Change In Mass (%) ([2]; RH 30%): 0.0%
- Change In Mass (%) ([2]; RH 40%): 0.0%
- Change In Mass (%) ([2]; RH 50%): 0.0%
- Change In Mass (%) ([2]; RH 60%): 0.0%
- Change In Mass (%) ([2]; RH 70%): 38.6%
- Change In Mass (%) ([2]; RH 80%): 87.4%
- Change In Mass (%) ([2]; RH 90%): 130.9%
- solubility [3]: 660 mg/mL (≈ 7410 mM)
